Where a name gives a salt, the structure may show the parent alone.
Columns and labels:
Experiment in all cases: glasshouse herbicide spray test, % weed control, adjuvant with glyphosate potassium salt
Type in all cases: in vivo
Details in all cases: adjuvant 0 % v/v, 19 days after treatment
Abutilon Theophrasti = test system: Abutilon Theophrasti
Description: (§1) The compound of Synthesis Example SE1 was tested as an adjuvant with glyphosate potassium salt, mixing the glyphosate and adjuvant in a tank mix using concentrations of glyphosate from 0.125 to 2 g.l-1 and of adjuvant from 0.003125 to 0.2% v/v. The tank mixes were sprayed as a herbicide on a variety of test species at an application rate of 200 l.ha^−1 to give application rates of glyphosate of from 25 to 400 g (active ingredient).ha^−1. The plants were grown in a warm glasshouse and assessed 19 days after treatment for % control—the mean of three replicates for visually assessed % weed control, relative to unsprayed plants of each species in the same test.
(§2) Example AE1 was repeated but using the compound made in Synthesis Example SE4 as the adjuvant.

Echinochloa crus-galli = test system: Echinochloa crus-galli
Description: as §1, §2

Portulaca oleracea = test system: Portulaca oleracea
Description: as §1, §2

Sida Spinosa = test system: Sida Spinosa
Description: as §1, §2

Solanum nigra = test system: Solanum nigra
Description: as §1, §2

Sorghum halepense = test system: Sorghum halepense
Description: as §1, §2

O=C(O)CNCP(=O)(O)O [Glyphosate, glyphosate potassium salt, reference compound]
% control ABUTH (Abutilon Theophrasti; glyphosate 200 g ai/ha): 53%
% control ABUTH (Abutilon Theophrasti; glyphosate 400 g ai/ha): 73%
% control ECHCG (Echinochloa crus-galli; glyphosate 25 g ai/ha): 21%
% control ECHCG (Echinochloa crus-galli; glyphosate 50 g ai/ha): 47%
% control ECHCG (Echinochloa crus-galli; glyphosate 100 g ai/ha): 67%
% control ECHCG (Echinochloa crus-galli; glyphosate 200 g ai/ha): 82%
% control POROC (Portulaca oleracea; glyphosate 50 g ai/ha): 3%
% control POROC (Portulaca oleracea; glyphosate 100 g ai/ha): 10%
% control POROC (Portulaca oleracea; glyphosate 200 g ai/ha): 22%
% control POROC (Portulaca oleracea; glyphosate 400 g ai/ha): 38%
% control SIDSP (Sida Spinosa; glyphosate 50 g ai/ha): 30%
% control SIDSP (Sida Spinosa; glyphosate 100 g ai/ha): 35%
% control SIDSP (Sida Spinosa; glyphosate 200 g ai/ha): 58%
% control SIDSP (Sida Spinosa; glyphosate 400 g ai/ha): 75%
% control SOLNI (Solanum nigra; glyphosate 50 g ai/ha): 37%
% control SOLNI (Solanum nigra; glyphosate 100 g ai/ha): 65%
% control SOLNI (Solanum nigra; glyphosate 200 g ai/ha): 77%
% control SOLNI (Solanum nigra; glyphosate 400 g ai/ha): 78%
% control SORHA (Sorghum halepense; glyphosate 25 g ai/ha): 8%
% control SORHA (Sorghum halepense; glyphosate 50 g ai/ha): 47%
% control SORHA (Sorghum halepense; glyphosate 100 g ai/ha): 79%
% control SORHA (Sorghum halepense; glyphosate 200 g ai/ha): 82%

From patent US20060247129A1, “Surfactant compounds and agrochemical compositions” (Imperial Chemical Industries PLC, priority 2003, published 2006)
